Experimental data as given in PubChem BioAssay AID1918991 (Molecular Pharmacology Branch, DTP, NCI, 2023).

System: 186277-243-T-J2-PDC complex spheroid growth
Assay: Anticancer human tumor 186277-243-T-J2-PDC patient-derived colon adenocarcinoma cell line growth inhibition [AhR]
Conditions: for IC50: curve of first compound; for viability, T/C: stronger effect = lower value
In short: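 Spheroids combined tumor cells with HUVEC endothelial cells and human MSCs as stroma. AhR antagonists were paired with standard or investigational drugs, each dosed in half-log steps down from near clinical Cmax, or from 10 microM where Cmax was unknown.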

[1] = second compound 0.1 µM, first compound 0.0316 µM
[2] = second compound 0.1 µM, first compound 0.1 µM
[3] = second compound 0.1 µM, first compound 0.316 µM
[4] = second compound 0.1 µM, first compound 1 µM
[5] = second compound 0.1 µM, first compound 3.16 µM
[6] = second compound 0.1 µM, first compound 10 µM
[7] = second compound 0.316 µM, first compound 0.0316 µM
[8] = second compound 0.316 µM, first compound 0.1 µM
[9] = second compound 0.316 µM, first compound 0.316 µM
[10] = second compound 0.316 µM, first compound 1 µM
[11] = second compound 0.316 µM, first compound 3.16 µM
[12] = second compound 0.316 µM, first compound 10 µM
[13] = second compound 1 µM, first compound 0.0316 µM
[14] = second compound 1 µM, first compound 0.1 µM
[15] = second compound 1 µM, first compound 0.316 µM
[16] = second compound 1 µM, first compound 1 µM
[17] = second compound 1 µM, first compound 3.16 µM
[18] = second compound 1 µM, first compound 10 µM
[19] = second compound 3.16 µM, first compound 0.0316 µM
[20] = second compound 3.16 µM, first compound 0.1 µM
[21] = second compound 3.16 µM, first compound 0.316 µM
[22] = second compound 3.16 µM, first compound 1 µM
[23] = second compound 3.16 µM, first compound 3.16 µM
[24] = second compound 3.16 µM, first compound 10 µM
[25] = second compound 10 µM, first compound 0.0316 µM
[26] = second compound 10 µM, first compound 0.1 µM
[27] = second compound 10 µM, first compound 0.316 µM
[28] = second compound 10 µM, first compound 1 µM
[29] = second compound 10 µM, first compound 3.16 µM
[30] = second compound 10 µM, first compound 10 µM
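Note: spheroids exposed to compounds for seven days before the viability read.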
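Throughout, for viability, T/C: luminescent signal used as a stand-in for viable cell amount; 100% = DMSO vehicle control wells.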

| Compound | IC50 (second compound 0.1 µM) [nM] | IC50 (second compound 0.316 µM) [nM] | IC50 (second compound 1 µM) [nM] | IC50 (second compound 3.16 µM) [nM] | IC50 (second compound 10 µM) [nM] | viability, T/C [1] [%] | viability, T/C [2] [%] | viability, T/C [3] [%] | viability, T/C [4] [%] | viability, T/C [5] [%] | viability, T/C [6] [%] | viability, T/C [7] [%] | viability, T/C [8] [%] | viability, T/C [9] [%] | viability, T/C [10] [%] | viability, T/C [11] [%] | viability, T/C [12] [%] | viability, T/C [13] [%] | viability, T/C [14] [%] | viability, T/C [15] [%] | other results |
| --- | --- | --- | --- | --- | --- | --- | --- | --- | --- | --- | --- | --- | --- | --- | --- | --- | --- | --- | --- | --- | --- |
| Nc1ccn(C2OC(CO)C(O)C2(F)F)c(=O)n1 (stereo not given) + Cc1ccccc1N=Nc1ccc(NC(=O)c2ccnn2C)c(C)c1 | < 31.6 | < 31.6 | < 31.6 | < 31.6 | < 31.6 | 16.6 | 15.3 | 14.9 | 16.3 | 18.7 | 17.1 | 14.9 | 14.5 | 16.5 | 18 | 17.4 | 17.4 | 16 | 16 | 16.4 | viability, T/C [16]: 17%; viability, T/C [17]: 18.3%; viability, T/C [18]: 19.4%; viability, T/C [19]: 14.6%; viability, T/C [20]: 13%; viability, T/C [21]: 15.7%; viability, T/C [22]: 15.3%; viability, T/C [23]: 17.1%; viability, T/C [24]: 17.1%; viability, T/C [25]: 16%; viability, T/C [26]: 15.9%; viability, T/C [27]: 16.6%; viability, T/C [28]: 17.8%; viability, T/C [29]: 18%; viability, T/C [30]: 18.8% |
| O=C(C=Cc1cccc(S(=O)(=O)Nc2ccccc2)c1)NO + Cc1ccccc1N=Nc1ccc(NC(=O)c2ccnn2C)c(C)c1 | 2020 | 1740 | 1900 | 1660 | 1470 | 114 | 104 | 96.2 | 88.8 | 25.4 | 4.8 | 96.7 | 114 | 101 | 74.7 | 23.2 | 4.82 | 104 | 100 | 108 | viability, T/C [16]: 84.7%; viability, T/C [17]: 22.3%; viability, T/C [18]: 4.07%; viability, T/C [19]: 91.5%; viability, T/C [20]: 114%; viability, T/C [21]: 112%; viability, T/C [22]: 74.5%; viability, T/C [23]: 18.4%; viability, T/C [24]: 3%; viability, T/C [25]: 89.8%; viability, T/C [26]: 97.8%; viability, T/C [27]: 96.5%; viability, T/C [28]: 65%; viability, T/C [29]: 18.8%; viability, T/C [30]: 3.18% |
| O=C(c1cc(Cc2n[nH]c(=O)c3ccccc23)ccc1F)N1CCN(C(=O)C2CC2)CC1 + Cc1ccccc1N=Nc1ccc(NC(=O)c2ccnn2C)c(C)c1 | > 10000 | > 10000 | > 10000 | > 10000 | > 10000 | 102 | 95.4 | 95.5 | 101 | 99.2 | 123 | 94 | 111 | 97.5 | 101 | 100 | 127 | 105 | 87.3 | 110 | viability, T/C [16]: 95.1%; viability, T/C [17]: 113%; viability, T/C [18]: 127%; viability, T/C [19]: 109%; viability, T/C [20]: 96.5%; viability, T/C [21]: 104%; viability, T/C [22]: 101%; viability, T/C [23]: 106%; viability, T/C [24]: 111%; viability, T/C [25]: 85.6%; viability, T/C [26]: 86.1%; viability, T/C [27]: 101%; viability, T/C [28]: 93.3%; viability, T/C [29]: 93.6%; viability, T/C [30]: 91.6% |
